Columns and labels:
Format in all cases: in vivo
[1] = tested on: oilseed rape (Brassica napus); test: Test C postemergence, plant response rating; conditions: for Plant response rating, Oilseed Rape: scale 0 to 100; for Oilseed Rape plant response rating: scale 0 to 100 (0 no effect, 100 complete control)
Procedure, shortened: (§1)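 Both timings shared one formulation, a non-phytotoxic solvent mixture with surfactant, and a greenhouse period of 13 to 15 d. Preemergence used seeded loam/sand or silt loam soil, postemergence used 2 to 18 cm plants; visual ratings ran from 0 (no effect) to 100 (complete control).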

[2] = tested on: wheat (winter wheat, Triticum aestivum); test: Test C postemergence, plant response rating; conditions: for Plant response rating, Wheat: scale 0 to 100; for Wheat plant response rating: scale 0 to 100 (0 no effect, 100 complete control)
Procedure, shortened: as §1

[3] = tested on: velvetleaf (Abutilon theophrasti); test: Test C postemergence, plant response rating; conditions: for Plant response rating, Velvetleaf: scale 0 to 100; for Velvetleaf plant response rating: scale 0 to 100 (0 no effect, 100 complete control)
Procedure, shortened: as §1

[4] = tested on: barnyardgrass (Echinochloa crus-galli); test: Test C postemergence, plant response rating; conditions: for Plant response rating, Barnyardgrass: scale 0 to 100; for Barnyardgrass plant response rating: scale 0 to 100 (0 no effect, 100 complete control)
Procedure, shortened: as §1

[5] = tested on: morningglory (Ipomoea coccinea); test: Test C postemergence, plant response rating; conditions: for Plant response rating, Morningglory: scale 0 to 100; for Morningglory plant response rating: scale 0 to 100 (0 no effect, 100 complete control)
Procedure, shortened: as §1

[6] = tested on: blackgrass (Alopecurus myosuroides); test: Test C postemergence, plant response rating; conditions: for Plant response rating, Blackgrass: scale 0 to 100; for Blackgrass plant response rating: scale 0 to 100 (0 no effect, 100 complete control)
Procedure, shortened: as §1

[7] = tested on: foxtail, giant (giant foxtail, Setaria faberii); test: Test C postemergence, plant response rating; conditions: for Plant response rating, Foxtail, Giant: scale 0 to 100; for Foxtail, Giant plant response rating: scale 0 to 100 (0 no effect, 100 complete control)
Procedure, shortened: as §1

[8] = tested on: oilseed rape (Brassica napus); test: Test C preemergence, plant response rating; conditions: Preemergence
Procedure, shortened: as §1

soybean (Glycine max) = test: Test C preemergence, plant response rating; conditions: Preemergence
Procedure, shortened: as §1

corn (Zea mays) = test: Test C preemergence, plant response rating; conditions: Preemergence
Procedure, shortened: as §1

[9] = tested on: waterhemp (common waterhemp, Amaranthus rudis); test: Test C preemergence, plant response rating; conditions: Preemergence
Procedure, shortened: as §1

[10] = tested on: ragweed (common ragweed, Ambrosia elatior); test: Test C preemergence, plant response rating; conditions: Preemergence
Procedure, shortened: as §1

[11] = tested on: wheat (winter wheat, Triticum aestivum); test: Test C preemergence, plant response rating; conditions: Preemergence
Procedure, shortened: as §1

[12] = tested on: ryegrass, Italian (Italian ryegrass, Lolium multiflorum); test: Test C preemergence, plant response rating; conditions: Preemergence
Procedure, shortened: as §1

[13] = tested on: velvetleaf (Abutilon theophrasti); test: Test C preemergence, plant response rating; conditions: Preemergence
Procedure, shortened: as §1

[14] = tested on: nutsedge, yellow (yellow nutsedge, Cyperus esculentus); test: Test C preemergence, plant response rating; conditions: Preemergence
Procedure, shortened: as §1

[15] = tested on: crabgrass, large (large crabgrass, Digitaria sanguinalis); test: Test C preemergence, plant response rating; conditions: Preemergence
Procedure, shortened: as §1

[16] = tested on: morningglory (Ipomoea coccinea); test: Test C preemergence, plant response rating; conditions: Preemergence
Procedure, shortened: as §1

[17] = tested on: blackgrass (Alopecurus myosuroides); test: Test C preemergence, plant response rating; conditions: Preemergence
Procedure, shortened: as §1

[18] = tested on: foxtail, giant (giant foxtail, Setaria faberii); test: Test C preemergence, plant response rating; conditions: Preemergence
Procedure, shortened: as §1

[19] = tested on: lambsquarters (Chenopodium album); test: Test C preemergence, plant response rating; conditions: Preemergence
Procedure, shortened: as §1

N#Cc1cccc(Oc2ncc(Cl)cn2)c1CCCC(F)(F)F [Compound 72]
Plant response rating, Oilseed Rape ([1]; 16 g ai/ha): 50
Plant response rating, Oilseed Rape ([1]; 31 g ai/ha): 60
Oilseed Rape plant response rating ([1]; 62 g ai/ha): 0
Oilseed Rape plant response rating ([1]; 125 g ai/ha): 65
Plant response rating, Wheat ([2]; 16 g ai/ha): 0
Plant response rating, Wheat ([2]; 31 g ai/ha): 0
Wheat plant response rating ([2]; 62 g ai/ha): 0
Wheat plant response rating ([2]; 125 g ai/ha): 5
Plant response rating, Velvetleaf ([3]; 16 g ai/ha): 40
Plant response rating, Velvetleaf ([3]; 31 g ai/ha): 50
Velvetleaf plant response rating ([3]; 62 g ai/ha): 40
Velvetleaf plant response rating ([3]; 125 g ai/ha): 70
Plant response rating, Barnyardgrass ([4]; 16 g ai/ha): 5
Plant response rating, Barnyardgrass ([4]; 31 g ai/ha): 5
Barnyardgrass plant response rating ([4]; 62 g ai/ha): 10
Barnyardgrass plant response rating ([4]; 125 g ai/ha): 10
Plant response rating, Morningglory ([5]; 16 g ai/ha): 75
Plant response rating, Morningglory ([5]; 31 g ai/ha): 65
Morningglory plant response rating ([5]; 62 g ai/ha): 40
Morningglory plant response rating ([5]; 125 g ai/ha): 70
Plant response rating, Blackgrass ([6]; 16 g ai/ha): 5
Plant response rating, Blackgrass ([6]; 31 g ai/ha): 10
Blackgrass plant response rating ([6]; 62 g ai/ha): 10
Blackgrass plant response rating ([6]; 125 g ai/ha): 30
Plant response rating, Foxtail, Giant ([7]; 16 g ai/ha): 30
Plant response rating, Foxtail, Giant ([7]; 31 g ai/ha): 30
Foxtail, Giant plant response rating ([7]; 62 g ai/ha): 20
Foxtail, Giant plant response rating ([7]; 125 g ai/ha): 20
Plant response rating, Oilseed Rape ([8]; 125 g ai/ha, scale of 0 to 100): 100
Plant response rating, Oilseed Rape ([8]; 16 g ai/ha, scale 0 to 100): 5
Plant response rating, Oilseed Rape ([8]; 31 g ai/ha, scale 0 to 100): 80
Plant response rating, Oilseed Rape ([8]; 62 g ai/ha, scale 0 to 100): 80
Plant response rating, Soybean (soybean (Glycine max); 125 g ai/ha, scale of 0 to 100): 90
Plant response rating, Soybean (soybean (Glycine max); 16 g ai/ha, scale 0 to 100): 0
Plant response rating, Soybean (soybean (Glycine max); 31 g ai/ha, scale 0 to 100): 0
Plant response rating, Soybean (soybean (Glycine max); 62 g ai/ha, scale 0 to 100): 15
Plant response rating, Corn (corn (Zea mays); 62 g ai/ha, scale of 0 to 100): 20
Plant response rating, Corn (corn (Zea mays); 125 g ai/ha, scale of 0 to 100): 60
Plant response rating, Corn (corn (Zea mays); 16 g ai/ha, scale 0 to 100): 5
Plant response rating, Corn (corn (Zea mays); 31 g ai/ha, scale 0 to 100): 20
Plant response rating, Waterhemp ([9]; 125 g ai/ha, scale of 0 to 100): 100
Plant response rating, Waterhemp ([9]; 16 g ai/ha, scale 0 to 100): 100
Plant response rating, Waterhemp ([9]; 31 g ai/ha, scale 0 to 100): 100
Plant response rating, Waterhemp ([9]; 62 g ai/ha, scale 0 to 100): 100
Plant response rating, Ragweed ([10]; 125 g ai/ha, scale of 0 to 100): 45
Plant response rating, Ragweed ([10]; 16 g ai/ha, scale 0 to 100): 0
Plant response rating, Ragweed ([10]; 31 g ai/ha, scale 0 to 100): 0
Plant response rating, Ragweed ([10]; 62 g ai/ha, scale 0 to 100): 40
Plant response rating, Wheat ([11]; 125 g ai/ha, scale of 0 to 100): 80
Plant response rating, Wheat ([11]; 16 g ai/ha, scale 0 to 100): 0
Plant response rating, Wheat ([11]; 31 g ai/ha, scale 0 to 100): 0
Plant response rating, Wheat ([11]; 62 g ai/ha, scale 0 to 100): 30
Plant response rating, Ryegrass, Italian ([12]; 125 g ai/ha, scale of 0 to 100): 100
Plant response rating, Ryegrass, Italian ([12]; 16 g ai/ha, scale 0 to 100): 10
Plant response rating, Ryegrass, Italian ([12]; 31 g ai/ha, scale 0 to 100): 45
Plant response rating, Ryegrass, Italian ([12]; 62 g ai/ha, scale 0 to 100): 45
Plant response rating, Velvetleaf ([13]; 125 g ai/ha, scale of 0 to 100): 100
Plant response rating, Velvetleaf ([13]; 16 g ai/ha, scale 0 to 100): 10
Plant response rating, Velvetleaf ([13]; 31 g ai/ha, scale 0 to 100): 60
Plant response rating, Velvetleaf ([13]; 62 g ai/ha, scale 0 to 100): 55
Plant response rating, Nutsedge, Yellow ([14]; 125 g ai/ha, scale of 0 to 100): 0
Plant response rating, Nutsedge, Yellow ([14]; 16 g ai/ha, scale 0 to 100): 0
Plant response rating, Nutsedge, Yellow ([14]; 31 g ai/ha, scale 0 to 100): 0
Plant response rating, Nutsedge, Yellow ([14]; 62 g ai/ha, scale 0 to 100): 0
Plant response rating, Crabgrass, Large ([15]; 62 g ai/ha, scale of 0 to 100): 100
Plant response rating, Crabgrass, Large ([15]; 125 g ai/ha, scale of 0 to 100): 100
Plant response rating, Crabgrass, Large ([15]; 16 g ai/ha, scale 0 to 100): 100
Plant response rating, Crabgrass, Large ([15]; 31 g ai/ha, scale 0 to 100): 100
Plant response rating, Morningglory ([16]; 125 g ai/ha, scale of 0 to 100): 95
Plant response rating, Morningglory ([16]; 16 g ai/ha, scale 0 to 100): 10
Plant response rating, Morningglory ([16]; 31 g ai/ha, scale 0 to 100): 40
Plant response rating, Morningglory ([16]; 62 g ai/ha, scale 0 to 100): 55
Plant response rating, Blackgrass ([17]; 62 g ai/ha, scale of 0 to 100): 98
Plant response rating, Blackgrass ([17]; 125 g ai/ha, scale of 0 to 100): 100
Plant response rating, Blackgrass ([17]; 16 g ai/ha, scale 0 to 100): 60
Plant response rating, Blackgrass ([17]; 31 g ai/ha, scale 0 to 100): 98
Plant response rating, Foxtail, Giant ([18]; 62 g ai/ha, scale of 0 to 100): 75
Plant response rating, Foxtail, Giant ([18]; 125 g ai/ha, scale of 0 to 100): 100
Plant response rating, Foxtail, Giant ([18]; 16 g ai/ha, scale 0 to 100): 55
Plant response rating, Foxtail, Giant ([18]; 31 g ai/ha, scale 0 to 100): 80
Plant response rating, Lambsquarters ([19]; 125 g ai/ha, scale of 0 to 100): 100
Plant response rating, Lambsquarters ([19]; 16 g ai/ha, scale 0 to 100): 65
Plant response rating, Lambsquarters ([19]; 31 g ai/ha, scale 0 to 100): 80
Plant response rating, Lambsquarters ([19]; 62 g ai/ha, scale 0 to 100): 90
